Measurements published in a melting point compilation (Tetko et al.; mined from patent text by program, amines drawn as free bases though some values may be those of a salt).

Compound | melting point
CCc1c(N)c(C(N)=O)nn1CCOC | 131 °C
CCCc1ccc(CCCOc2c(C)cc(-c3nnn(C)n3)cc2C)o1 | 38 to 39 °C
O=C(O)C1CCCc2c1c1ccccc1n2Cc1ccccc1 (stereo not drawn) | 212 to 215 °C
CNC(=C[N+](=O)[O-])NCc1ccc2c(c1)Nc1nccnc1S2 | > 265 °C
CCc1ccc(C(O)COc2ccc(C=O)cc2)nc1 (stereo not drawn) | 80 °C
O=C(O)COc1cccc2c1CCc1sc(S(=O)(=O)CCC(c3ccccc3)c3ccccc3)nc1-2 | 175 to 176 °C
CCn1ncnc1COc1nn2c(-c3ccccc3F)nncc2c1-c1ccco1 | 182 to 183 °C
CCCCCCCCCCCCCCCCCCOC(=O)CCc1cc(C)c(O)c(C(C)(C)C)c1 | 58 to 59 °C
CSCCCn1c(C)c(C(=O)c2cccc(Cl)c2Cl)c2cccc(Br)c21 | 119 °C
O=C1N(Cc2ccccc2)OCCN1c1ccc(Cl)c(Cl)c1 | 76 °C
CC(C)(C)CCNC(=O)NCCCl | 84 °C
CCCc1cc(CP(=O)(OC)OC)c2c(CP(=O)(OC)OC)cccc2c1OC | 69 to 70 °C
CC(=O)Nc1ccc(CN2CCC(C(c3ccccc3)c3ccccc3)CC2)cc1 | 182 to 183 °C
CC1CCc2c(Cl)c(F)cc3c(=O)c(C(=O)O)cn1c23 (stereo not drawn) | 297 to 298 °C
CCC1(Cc2ccccc2)C(=O)N(C)C(=Cc2ccccc2C#N)C(=O)N1C (stereo not drawn) | 120 °C
Cc1ccccc1-c1ccc(C(=O)N2Cc3ccc(C(=O)NCc4ccccc4)n3Cc3ccccc32)cc1C | 138 to 141 °C
Cc1cc(-c2ccc(Cl)cc2)cn2cc(C(=O)NC(Cc3ccc(OCc4ccccc4)cc3)C(=O)O)nc12 (stereo not drawn) | 249 to 250 °C
COC[C@H]1O[C@H](ONC(=O)c2nc(-c3ccc(Cl)c(OC)c3F)cc(N)c2Cl)[C@H](OC)[C@@H](OC)[C@@H]1OC | 184 to 187 °C
CCOC(=O)COc1cc2c(c(Cl)c1Cl)C(=O)C(CC)C2 (stereo not drawn) | 116 to 118 °C
COc1cc2c(cc1OC)N(C(=O)c1ccc(-c3ccccc3C(F)(F)F)c(C)c1)Cc1cccn1C2 | 187 to 188 °C
COc1ccc(NCCNC(=O)c2ccc(OCC=C(C)CCC=C(C)C)cc2)cn1 | 97.9 to 99.3 °C
NC(=O)c1nccn1C1Cc2c(cccc2-c2ccccc2)C1=O (stereo not drawn) | 196 °C
CCOCc1nc(C(C)(C)O)c(C(=O)OCOC(=O)C(C)(C)C)n1Cc1ccc(-c2ccccc2-c2nnn[nH]2)cc1 | 56 to 61 °C
COC(=O)C1Cc2sc3c(c2C1)C(c1ccccc1Cl)=NCC(N(C)C1(C)OCCO1)=N3 (stereo not drawn) | 166 to 168 °C
O=c1c2ccsc2ccn2ccnc12 | 267 °C

Compound | melting point
COc1ccc(CSc2nnc(-c3ccnc(NC(=O)CCc4ccccc4)c3)o2)cc1C#N | 176 to 177 °C
O=C(CCCc1ccccc1)c1c(O)c2cccnc2n(-c2ccccc2)c1=O | 200 to 202 °C
COc1cc2c(c(OC)c1/C=C/c1ccc(C=O)cc1)C(C)(C)CCC2(C)C | 108 °C
COC(=O)C1=C(C)Nc2nc[nH]c(=O)c2C1c1cccc([N+](=O)[O-])c1 (stereo not drawn) | 289 to 290 °C
CCC(=O)Nc1cccc(-c2ccnc3c(C(=O)c4cccs4)cnn23)c1 | 208 to 210 °C
CCCCCC(C)(C)NC(=O)CN1C(=O)c2ccccc2C1=O | 142 °C
C=CCN1CC(C)N(C(c2cccc(O)c2)c2cccc(C#N)c2)CC1C (stereo not drawn) | 169 to 171 °C
CCC1(CC)CC(c2ccc(OC)c(OC)c2)=NN(C2CCN(C(=O)c3ccccc3OC)CC2)C1=O | 160 to 162 °C
CCC1CC2C3CCC4=CC(=O)CCC4=C3CCC2(C)C1O (stereo not drawn) | 124 to 126 °C
CCOC(Cc1ccc(OCCN2c3ccccc3Oc3ccccc32)cc1)C(=O)OC (stereo not drawn) | 88 to 90 °C
Cc1nc(C(O)(c2nc(C)c(C)s2)C(C)(C)C)sc1C | 91 to 92 °C
O=C(O)c1ccc(-c2nc(-c3ccc(Cl)s3)cs2)cc1 | 283 to 284 °C
O=C(Nc1ccccn1)C(CC1CCCC1)c1ccc(C(F)(F)F)c(F)c1 (stereo not drawn) | 40 to 44 °C
CCN(CC)C(=O)CCc1nc(-c2cccc(C(F)(F)F)c2)nc2ccccc12 | 115 °C
CCn1nnnc1NCC(O)COc1cccc(CN2CCCCC2)c1 (stereo not drawn) | 111 to 113 °C
CCCS(=O)(=O)N=C(N[N+](=O)[O-])SC | 91 to 93 °C
CCCCC(C(=O)N[C@H]1CN2CCC1CC2)c1ccccc1 (stereo partly drawn) | 136 °C
Cc1c(C)c2c(c(C)c1NC(=O)CC(C)(C)C)C(O)C(C)(C)O2 (stereo not drawn) | 204 to 206 °C
Cc1cc2cn[nH]c2c(C(=O)NC(C)C)c1NC(=O)c1cc(Br)nn1-c1ncccc1Cl | 163 to 166 °C
CS(=O)(=O)c1ccc(-c2cnn(CC=C(Cl)Cl)c(=O)c2-c2ccc(F)cc2)cc1 | 150 to 152 °C
CCS1(N2CCN(c3ccccc3OC)CC2)C(C)=C(C)c2c1[nH]c(=O)[nH]c2=O (stereo not drawn) | 196 to 197 °C
COc1cc(OCC(O)CN2CCN(c3ccccc3NC(C)=O)CC2)cc(OC)c1OC (stereo not drawn) | 128 to 130 °C
N#CCC[C@H]1CC[C@@H](c2ccc(F)cc2)N1S(=O)(=O)c1ccc(Cl)cc1 (racemic) | 108 °C
COC(=O)c1cc(OC)c2c(c1)OCO2 | 91 °C
C=CC(=O)[C@H](Cc1cc(F)cc(F)c1)NC(=O)OC(C)(C)C | 115 °C

Compound | melting point
COC(=O)Nc1cc(OC)c(-c2ccc(C[C@H](NC(=O)c3c(Cl)cccc3Cl)C(=O)O)cc2)c(OC)c1 | 235 to 236 °C
CSCCN1C(=O)c2ccccc2Oc2nc(Cl)ccc21 | 126 to 128 °C
COc1ccc(C(=O)Nc2ccc(Cl)c(Cl)c2)cc1N | 179 to 182 °C
Cn1c(=O)[nH]c(=O)c2cccnc21 | 277 to 285 °C
Nc1ccc(CS(=O)(=O)Nc2ccccc2)cc1 | 180 to 182 °C
O=Cc1cc(Cl)c2c(c1)CCCO2 | 51 °C
COc1ccc2c(c1)C(=O)N(c1ccc3ncccc3c1)C2 | 194 to 197 °C
CC(=O)Oc1ccc(C(C)(C)C)cc1C1(OC(C)=O)C(=O)c2ccccc2C1=O | 195 to 196 °C
COc1ccc2c(=O)[nH]c(-c3ccc(OCCNC(C)C)c(-c4ccc(S(C)(=O)=O)cc4)n3)nc2c1 | 204 to 205 °C
COc1cc(S(C)(=O)=O)c(C)cc1OCC(=O)NCC(O)COc1ccccc1 (stereo not drawn) | 103 to 105 °C
CN(Cc1cccc2c1CN(C1CCC(=O)NC1=O)C2=O)C(=O)Nc1cccc(C(F)(F)F)c1 (stereo not drawn) | 198 to 200 °C
Cn1c(=O)[nH]c2cc3[nH]c(-c4cccnc4)nc3cc21 | > 300 °C
O=S(=O)(Nc1ccc2c(OCc3csc(-c4ccc(C(F)(F)F)cn4)n3)cccc2c1)C(F)(F)F | 197 to 198 °C
CN(c1ccc(Cl)cc1[N+](=O)[O-])S(=O)(=O)C=Cc1ccccc1 | 162 to 164 °C
N#Cc1ccc([C@H]2CC[C@H](O)CC2)cc1 | 120 to 122 °C
FC(F)(F)Sc1cc(-c2ccccc2)c(-c2ccccc2)[nH]1 | 58 to 59 °C
C=C(F)c1c(C(=O)OC)nc(Cl)c(F)c1N | 98 to 100 °C
CCCCCN1C(=O)C(O)(c2ccc3c(c2)OCO3)c2cccnc21 (stereo not drawn) | 104 to 105 °C
Cc1c(NC(=O)c2ccc(-c3ccccc3F)cc2)ccc2cc(CN3CCCC3)cnc12 | 133 to 135 °C
COc1cc(OC)cc(-c2nc[nH]c2-c2ccc(OC)c(N)c2F)c1 | 118 to 120 °C
O=C(Nc1ccc2cc(CN3CCCC3)cnc2c1)c1ccc(-c2ccc(Cl)cc2)cc1F | 177 °C
CCCCN1CC(=O)N(c2cc(Cl)ccc2C)C1=S | 102 to 103 °C
CC(=O)c1cc2c(cc1C)C(C)(C)CCC2(C)C | 54 to 57 °C
O=c1[nH]c(=O)n(Cc2ccc(Cl)cc2)c2ccccc12 | 217 to 218 °C
CC(=O)N[C@@H]1[C@@H](CC2CO2)CC(C(=O)O)=C[C@H]1OC(C)C (stereo partly drawn) | 156 to 157 °C

Compound | melting point
CCn1ncc2c(NCc3ccccc3)c3ccccc3nc21 | 130 to 132 °C
O=[N+]([O-])c1cc(Cl)cnc1N1CCN(C/C=C/c2ccc(C(F)(F)F)cc2)CC1 | 129 to 132 °C
N#Cc1nn(-c2c(Cl)cc(C(F)(F)F)cc2Cl)c(N)c1-c1ccc(SC(F)(F)F)s1 | 162 to 163 °C
CC1CCc2ccc(N)c3c(=O)c(C(=O)O)cn1c23 (stereo not drawn) | 247 to 249 °C
Cc1ccc(S)c(C=O)c1 | 181 to 184 °C
CC(C)Nc1cccnc1N1CCN(C(=O)c2ccc(C(=O)NC(C)(C)CO)cc2)CC1 | 113 to 115 °C
CC(C)C[C@H](NC(=O)OC(C)(C)C)[C@H](O)CO | 58 to 59 °C
CCCCCCCCc1ccc(C(=O)CBr)cc1 | 33 to 34 °C
CN(CCOc1ccc(Cn2cc(CCC(=O)O)c(-c3ccccc3)c2)cc1)c1ccccn1 | 110 to 111 °C
CCN1CCO[C@]2(C)c3cccc4[nH]cc(c34)C[C@@H]12 (relative stereo) | 129 to 130 °C
CC(C)c1ccc(-c2c(Cl)c(CCl)nc3sc4c(c23)CCN(Cc2ccccc2)C4)cc1 | 190 to 192 °C
CCOC(=O)C(C(=O)OCC)c1cc(OC)ccc1[N+](=O)[O-] | 92 to 93 °C
O=C(NCCCc1ccccc1)c1ccc2c(c1)C(Cl)(Cl)c1cc(C(=O)NCCCc3ccccc3)ccc1-2 | 165 to 167 °C
COC(=O)CC/C(C)=C/Cc1c(NC=O)c2c(c(C)c1OC)COC2=O | 187 to 189 °C
CCN(CC)CC#CCNC(=O)C(O)(c1ccccc1)C1CCCCC1 (stereo not drawn) | 102 to 104 °C
O=C(C=C(c1cc(Cl)cc(Cl)c1)C(F)(F)F)c1ccc(C(=O)Nc2ncc(Cl)cn2)cc1 | 71 to 76 °C
CC(C)S(=O)(=O)NCC(C)(F)c1ccc(-c2cccc3c2CC(=O)N3)cc1 (stereo not drawn) | 86 to 87 °C
COC(=O)c1ccoc1-c1cccc([N+](=O)[O-])c1 | 93 to 94 °C
N#Cc1ccc(Oc2ccccc2N)cc1C#N | 118 °C
Cc1nn(C)c(C(=O)O)c1-c1ccc(Cl)c(C(=O)NCC23CC4CC(CC(C4)C2)C3)c1 | 207 °C
O=C1Nc2cc(NC(=O)c3cccn(-c4ccc(F)cc4)c3=O)ccc2/C1=C/c1ccc[nH]1 | > 300 °C
c1c[nH]c(-c2cnco2)c1 | 57 to 58 °C
CCOC(=O)C(CC)C(=O)Nc1cc(Cl)cc(Cl)c1 (stereo not drawn) | 96.5 to 98 °C
